Source: patent publication US8017606B2, “Quinoline derivatives as antibacterial agents” (Janssen Pharmaceutica NV, priority 2005, dated 2011)
Converted amounts (≈) assume the structure as drawn. Structures can show the parent of a compound that is named as a salt.

Assays:
[1] = test system: Bacillus subtilis (ATCC43639); test: Microtitre plate assay, IC90 determination; type: cell-based; details: 90% inhibitory concentration for bacterial growth, 37° C., resazurin fluorescence, read-out: IC90 (μg/ml) BSU 43639
Experimental: (§1) The bacteria used in this study were grown overnight in flasks containing 100 ml Mueller-Hinton Broth (Becton Dickinson—cat. no. 275730) in sterile de-ionized water, with shaking, at 37° C. Stocks (0.5 ml/tube) were stored at −70° C. until use. Bacteria titrations were performed in microtiter plates and colony forming units (CFUs) were determined. In general, an inoculum level of approximately 100 CFUs was used for susceptibility testing.
(§2) Anti Bacterial Susceptibility Testing: IC90 Determination
(§3) Flat-bottom, sterile 96-well plastic microtiter plates were filled with 180 μl of sterile deionized water, supplemented with 0.25% BSA. Subsequently, stock solutions (7.8×final test concentration) of compounds were added in 45 μl volumes in column 2 Serial five-fold dilutions (45 μl in 180 μl) were made directly in the microtiter plates from column 2 to reach column 11. Untreated control samples with (column 1) and without (column 12) inoculum were included in each microtiter plate. Depending on the bacteria type, approximately 10 to 60 CFU per well of bacteria inoculum (100 TCID50), in a volume of 100 μl in 2.8× Mueller-Hinton broth medium, was added to the rows A to H, except column 12. The same volume of broth medium without inoculum was added to column 12 in row A to H. The cultures were incubated at 37° C. for 24 hours under a normal atmosphere (incubator with open air valve and continuous ventilation). At the end of incubation, one day after inoculation, the bacterial growth was quantitated fluorometrically. Therefore resazurin (0.6 mg/ml) was added in a volume of 20 μl to all wells […], and the plates were re-incubated overnight. A change in colour from blue to pink indicated the growth of bacteria.
(§4) The fluorescence was read in a computer-controlled fluorometer (Cytofluor Biosearch) at an excitation wavelength of 530 nm and an emission wavelength of 590 nm. The % growth inhibition achieved by the compounds was calculated according to standard methods. The IC90 (expressed in μg/ml) was defined as the 90% inhibitory concentration for bacterial growth.

[2] = test system: Enterococcus faecalis (ATCC29212); test: Microtitre plate assay, IC90 determination; type: cell-based; details: 90% inhibitory concentration for bacterial growth, 37° C., resazurin fluorescence, read-out: IC90 (μg/ml) EFA 29212
Experimental: as §1, §2, §3, §4

[3] = test system: Listeria monocytogenes (ATCC49594); test: Microtitre plate assay, IC90 determination; type: cell-based; details: 90% inhibitory concentration for bacterial growth, 37° C., resazurin fluorescence, read-out: IC90 (μg/ml) LMO 49594
Experimental: as §1, §2, §3, §4

[4] = test system: Pseudomonas aeruginosa (ATCC27853); test: Microtitre plate assay, IC90 determination; type: cell-based; details: 90% inhibitory concentration for bacterial growth, 37° C., resazurin fluorescence, read-out: IC90 (μg/ml) PAE 27853
Experimental: as §1, §2, §3, §4

[5] = test system: Staphylococcus aureus (ATCC25923); test: Microtitre plate assay, IC90 determination; type: cell-based; details: 90% inhibitory concentration for bacterial growth, 37° C., resazurin fluorescence, read-out: IC90 (μg/ml) STA 25923
Experimental: as §1, §2, §3, §4

[6] = test system: Staphylococcus aureus (ATCC29213); test: Microtitre plate assay, IC90 determination; type: cell-based; details: 90% inhibitory concentration for bacterial growth, 37° C., resazurin fluorescence, read-out: IC90 (μg/ml) STA 29213
Experimental: as §1, §2, §3, §4

[7] = test system: Staphylococcus aureus (ATCC43300); test: Microtitre plate assay, IC90 determination; type: cell-based; details: 90% inhibitory concentration for bacterial growth, 37° C., resazurin fluorescence, read-out: IC90 (μg/ml) STA 43300
Experimental: as §1, §2, §3, §4

[8] = test system: Streptococcus mutans (ATCC33402); test: Microtitre plate assay, IC90 determination; type: cell-based; details: 90% inhibitory concentration for bacterial growth, 37° C., resazurin fluorescence, read-out: IC90 (μg/ml) SMU 33402
Experimental: as §1, §2, §3, §4

[9] = test system: Streptococcus pneumoniae (ATCC6305); test: Microtitre plate assay, IC90 determination; type: cell-based; details: 90% inhibitory concentration for bacterial growth, 37° C., resazurin fluorescence, read-out: IC90 (μg/ml) SPN 6305
Experimental: as §1, §2, §3, §4

[10] = test system: Streptococcus pyogens (ATCC8668); test: Microtitre plate assay, IC90 determination; type: cell-based; details: 90% inhibitory concentration for bacterial growth, 37° C., resazurin fluorescence, read-out: IC90 (μg/ml) SPY 8668
Experimental: as §1, §2, §3, §4

[11] = test system: methicilline resistant Staphylococcus aureus (MRSA) (a clinical isolate from the University of Antwerp); test: Microtitre plate assay, IC90 determination; type: cell-based; details: 90% inhibitory concentration for bacterial growth, 37° C., resazurin fluorescence, read-out: IC90 (μg/ml) STA RMETHIC
Experimental: as §1, §2, §3, §4

[12] = test system: Enterococcus faecalis (ATCC14506); test: Microtitre plate assay, IC90 determination; type: cell-based; details: 90% inhibitory concentration for bacterial growth, 37° C., resazurin fluorescence, read-out: IC90 (μg/ml) EFA 14506
Experimental: as §1, §2, §3, §4

| SMILES | IC90 [1] [µg/mL] | IC90 [2] [µg/mL] | IC90 [3] [µg/mL] | IC90 [4] [µg/mL] | IC90 [5] [µg/mL] | IC90 [6] [µg/mL] | IC90 [7] [µg/mL] | IC90 [8] [µg/mL] | IC90 [9] [µg/mL] | IC90 [10] [µg/mL] | IC90 [11] [µg/mL] | melting point [°C] | IC90 [12] [µg/mL] |
| --- | --- | --- | --- | --- | --- | --- | --- | --- | --- | --- | --- | --- | --- |
| COc1nc2cccc(C(O)(CCN(C)C)c3cc4ccccc4o3)c2cc1-c1ccccc1 (centres unmarked) [Compound 6] | 11.4 (≈ 25.2 µM) | 11.4 (≈ 25.2 µM) | 11.4 (≈ 25.2 µM) | 9 (≈ 19.9 µM) | 11.4 (≈ 25.2 µM) | 9 (≈ 19.9 µM) | 9 (≈ 19.9 µM) | 9 (≈ 19.9 µM) | 11.4 (≈ 25.2 µM) | 9 (≈ 19.9 µM) | 10.1 (≈ 22.3 µM) |  |  |
| CN(C)CCC(O)(c1cc(F)cc(F)c1)c1cccc2nc(N(C)C)c(-c3ccccc3)cc12 (centres unmarked) (as salt: salt) [Compound 45] |  |  |  |  |  |  |  |  |  |  |  | 136 |  |
| COc1nc2c(C(O)(CCN(C)C)c3ccccc3)cc(Br)cc2cc1Cc1ccccc1 (centres unmarked) [Compound 8] | 12.7 (≈ 25.1 µM) |  | 40.2 (≈ 79.5 µM) | 12.7 (≈ 25.1 µM) | 11.3 (≈ 22.4 µM) | 10.1 (≈ 20 µM) |  | 10.1 (≈ 20 µM) | 11.3 (≈ 22.4 µM) | 10.1 (≈ 20 µM) | 11.3 (≈ 22.4 µM) | 66 | 11.3 (≈ 22.4 µM) |
| COc1nc2c(C(O)(CCN(C)C)c3ccccc3)cc(-c3cccnc3)cc2cc1Cc1ccccc1 (centres unmarked) [Compound 66] | 50.4 (≈ 100 µM) | 50.4 (≈ 100 µM) | 50.4 (≈ 100 µM) | 40 (≈ 79.4 µM) | 50.4 (≈ 100 µM) | 40 (≈ 79.4 µM) |  | 40 (≈ 79.4 µM) | 50.4 (≈ 100 µM) | 40 (≈ 79.4 µM) | 50.4 (≈ 100 µM) | 180 |  |
| CN(C)CCC(O)(Cc1c(-c2ccccc2)c(-c2ccccc2)nc2ccccc12)c1cc(F)cc(F)c1 (centres unmarked) [Compound 21] | 12.8 (≈ 25.2 µM) | 12.8 (≈ 25.2 µM) | 12.8 (≈ 25.2 µM) | 12.8 (≈ 25.2 µM) | 12.8 (≈ 25.2 µM) | 12.8 (≈ 25.2 µM) |  |  | 12.8 (≈ 25.2 µM) | 12.8 (≈ 25.2 µM) | 12.8 (≈ 25.2 µM) | 173 |  |
| COc1nc2c(C(O)(CCN(C)C)c3cccs3)cc(Br)cc2cc1Cc1ccccc1 (centres unmarked) [Compound 10] |  | 10.2 (≈ 19.9 µM) | 10.2 (≈ 19.9 µM) | 12.9 (≈ 25.2 µM) | 11.5 (≈ 22.5 µM) | 12.9 (≈ 25.2 µM) | 12.9 (≈ 25.2 µM) | 10.2 (≈ 19.9 µM) | 11.5 (≈ 22.5 µM) | 10.2 (≈ 19.9 µM) | 10.2 (≈ 19.9 µM) |  |  |
| CN(C)CCC(O)(c1cc(F)cc(F)c1)c1ccc2nc(-c3cccnc3)cc(-c3ccccc3)c2c1 (centres unmarked) (as salt: salt) [Compound 42] |  |  |  |  |  |  |  |  |  |  |  | 151 |  |
| COc1nc2ccccc2c(CC(O)(CCN(C)C)c2cccc(F)c2)c1Cc1ccccc1 (centres unmarked) [Compound 71] | 11.5 (≈ 25.1 µM) | 11.5 (≈ 25.1 µM) | 9.2 (≈ 20.1 µM) | 11.5 (≈ 25.1 µM) | 11.5 (≈ 25.1 µM) | 11.5 (≈ 25.1 µM) |  | 9.2 (≈ 20.1 µM) | 11.5 (≈ 25.1 µM) | 9.2 (≈ 20.1 µM) | 11.5 (≈ 25.1 µM) | 123 |  |
| COc1nc2cccc(C(O)(CCN(C)C)c3ccc4ccccc4c3)c2cc1-c1ccccc1 (centres unmarked) [Compound 3] | 11.6 (≈ 25.1 µM) | 11.6 (≈ 25.1 µM) | 11.6 (≈ 25.1 µM) | 9.2 (≈ 19.9 µM) | 11.6 (≈ 25.1 µM) | 11.6 (≈ 25.1 µM) | 9.2 (≈ 19.9 µM) | 9.2 (≈ 19.9 µM) | 5.2 (≈ 11.2 µM) | 9.2 (≈ 19.9 µM) | 11.6 (≈ 25.1 µM) |  |  |
